“Also recorded” adds a separate entry of the source.
Assays:
Jurkat T-cells [1] = test: L-PHA-FITC staining of Jurkat T cells cultured 3 days with monosaccharides, metabolites, Vitamin D3 or glycosidase inhibitors, FACS; format: cell-based, human; conditions: for Mgat5 N-glycans / β1,6GlcNAc-branched N-glycans expression (L-PHA staining): Jurkat T-cells, 3 days culture with supplement
Procedure: (§1) Mice used for L-PHA staining and quantitative RT-PCR were sex and age matched. […] 129/Sv mice were from an original Mgat5 gene targeted population (28). All other mice (SJL, NOD, Balb/c and B10.S) were obtained from Jackson Laboratories. […] Mouse and Jurkat cells were stained with L-PHA and LEA by first blocking with PBA (2% bovine serum albumin/0.01% azide/PBS) for 10 min at 4° C. and then incubated with 4 μg/ml of L-PHA-FITC (Vector Laboratories Inc.) or 20 μg/ml of LEA-FITC (Sigma) in PBA for 40 min at 4° C. and analyzed by a BD FACSCalihur (BD Pharmingen, San Diego, Calif.). The level of lectin binding was normalized by untreated control and calculated as a percentage (Sample intensity/control intensity-1) %.
(§2) Mice used for L-PHA staining and quantitative RT-PCR were sex and age matched. […] 129/Sv mice were from the original Mgat5 gene targeted population (28). All other mice (SJL, NOD, Balb/c and B10.S) were obtained from Jackson Laboratories. Mouse cells were stained with anti-CD4 (RM4-5), anti-CD8 (53-6.7), anti-CD45R (RA3-6B2) from eBioscience, and L-PHA (4 μg/ml) and LEA (20 μg/ml) from Sigma. […] Jurkat T-cells were cultured in either glutamine free RPMI 1640, 10% FBS, 10 mM/20 mM glucose or glucose/glutamine free DMEM base media supplemented with 10% FBS, 1.5 mM glucose. The indicated monosaccharides and/or metabolites were added daily except glucose which was added only at time zero.

Jurkat T-cells [2] = test: LEA-FITC staining (poly-N-acetyllactosamine) of Jurkat T cells, FACS; format: cell-based, human; conditions: 3 days culture with supplement
Procedure: as §1, §2

Jurkat T-cells [3] = test: MS/MS mass spectroscopy of sugar-nucleotide expression in Jurkat cell lysates; format: cell-based, human
Procedure: Jurkat cell pellets (20×10^6) were resuspended in a cold 300 μl methanol:water (1:1) solution containing maltose as internal standard, vortexed for 10 seconds, and then pipetted into tubes containing 600 μl of chloroform:methanol (C:M) (3:2). Samples were vortexed for 1 minute, and then centrifuged at 14,000 rpm for 5 minutes at 4° C. Supernatants were collected, and an equal volume of C:M (1:1) was added, followed by a second extraction. The pooled aqueous fraction containing the hydrophilic metabolites was dried with a speedvac and stored at −80° C. Prior to injection, the samples were dissolved in 100 μl methanol:water (1:1). […] The metabolites were identified by their transitions in MS/MS, and quantified using the Analyte Software (SCIEX), which measured the area under the curve for the fragment ions corresponding to each parent ion. Quantities for the given substrates are graphed as pmole/min/10^6 cells.
JurkaT-cell pellets (20×10^6) were resuspended in cold 300 μl methanol:water (1:1) solution containing maltose as an internal standard, vortexed for 10 seconds, and then pipetted into tubes containing 600 μl of chloroform:methanol (C:M) (3:2). […] The metabolites were identified by their transitions in MS/MS, and quantified using the Analyte Software (SCIEX), which measured the area under the curve for the fragment ions corresponding to each parent ion. […]

[4] = tested on: splenocytes harvested from MBP immunized wild type PL/J mice; test: L-PHA and LEA staining of splenocytes from MBP immunized PL/J mice re-stimulated with MBP; format: cell-based, mouse; conditions: MBP re-stimulation 4 days, GlcNAc 40 mM
Procedure: (§3) Adoptive transfer EAE was induced by s.c. immunization of wild type PL/J mice housed in the UCI vivarium with 100 μg of bovine MBP (Sigma) emulsified in Complete Freund's Adjuvant containing 4 mg/ml heat-inactivated Mycobacterium tuberculosis (H37 RA; Difco, Detroit, Mich.) distributed over three spots on the hind flank. Splenocytes were harvested after 11 days and stimulated in vitro with 50 μg/ml MBP in the presence or absence of 40 mM N-Acetyl-D-glucosamine (Sigma) added daily. After 96 hours incubation, CD3^+ T cells were purified by negative selection (R&D Systems) and 3.5×10^6T-cells were injected i.p. into naïve PL/J Mgat5^+/− recipient mice. Trypan blue exclusion determined <3% dead cells under both culture conditions. The mice were scored daily for clinical signs over the next 30 days with the observer blinded to treatment conditions.
as §1, with “(28).” for “(28). All other mice (SJL, NOD, Balb/c and B10.S) were obtained from Jackson Laboratories.”, “The level of lectin binding was normalized by untreated control and calculated as a percentage (Sample intensity/control intensity-1) %.” left out

[5] = tested on: splenocytes harvested from MBP immunized wild type PL/J mice; test: Cytokine ELISA of supernatant from MBP re-stimulated splenocyte cultures; format: cell-based, mouse; conditions: MBP re-stimulation day 4, GlcNAc 40 mM
Procedure: Supernatant from spleenocyte cultures used for adoptive transfer EAE at day 4 of stimulation with MBP in the presence or absence of GlcNAc (40 mM) were tested for INFγ levels. Microtiter plates were coated with 50 μl of anti-IFN-γ (1 μg/ml, clone AN-18; eBiosciences) overnight at 4° C. Supernatants were applied at 50 μl/well in duplicate and incubated for 2 hours at room temperature. Captured cytokines were detected using biotinylated anti-IFN-γ (1 μg/ml, clone R4-6A2; eBiosciences) and detected using Avidin Horse Radish Peroxidase (eBiosciences) at 1:500× dilution and o-Phenylenediamine dihydrochloride OPD tablets (Sigma) according to the manufacturer's protocols. […] Colorimetric change was measured at 450 nm on a microplate autoreader (Labsystems).
Supernatant from splenocyte cultures used for adoptive transfer EAE at day 4 of stimulation with MBP in the presence or absence of GlcNAc (40 mM) were tested for IFN-γ and IL-6 levels. […] Captured cytokines were detected using biotinylated anti-IFN-γ (1 μg/ml, clone R4-6A2; eBiosciences) or anti-IL-6 (1 μg/ml, clone MP5-32C11; eBiosciences) and detected using Avidin Horse Radish Peroxidase (eBiosciences) at 1:500× dilution and o-Phenylenediamine dihydrochloride OPD tablets (Sigma) according to the manufacturer's protocols. […] Colorimetric change was measured at 450 nm on a microplate autoreader (Labsystems).

[6] = tested on: naïve PL/J Mgat5+/− recipient mice; test: Adoptive transfer EAE; format: in vivo, mouse; conditions: T-cells re-stimulated in vitro with GlcNAc 40 mM, scored 30 days
Procedure: as §3
(§4) Adoptive transfer EAE was induced by s.c. immunization of wild type PL/J mice housed in the UCI vivarium with 100 μg of bovine MBP (Sigma) emulsified in Complete Freund's Adjuvant containing 4 mg/ml heat-inactivated Mycobacterium tuberculosis (H37 RA; Difco, Detroit, Mich.) distributed over three spots on the hind flank. […] Trypan blue exclusion determined […] dead cells under both culture conditions. Mice were scored daily for clinical signs of EAE over the next 30 days with the observer blinded to treatment conditions.

CD3+ T cells = test: Trypan blue exclusion of MBP-stimulated cultures used for adoptive transfer; format: cell-based; conditions: 96 hours incubation, 40 mM added daily
Procedure: as §3, §4

human PBMCs = test: L-PHA staining of human PBMCs / MS patient T cells; format: cell-based
Procedure: Mononuclear cells were isolated from the blood of subjects using Histopaque-1077™ gradients (Sigma, Saint Louis, Mo.) and cultured in RPMI 1640 medium supplemented with 4 mM glutamine, 1 mM sodium pyruvate, 1% non-essential amino acids, 1% RPMI vitamins, 100 units/ml penicillin, 100 μg/ml streptomycin, and 50 μM […]. T lymphocytes were left unstimulated or were activated for 48 hours with 20 ng/ml anti-CD3 antibody (Biomeda, Foster City, Calif.) or a combination of 20 myelin peptides at […] myelin basic protein (MBP). The myelin peptides were immunodominant peptides from human proteolipid protein (PLP 30-49, PLP 40-60, PLP 95-118, PLP 118-150, PLP-180-189, PLP 185-206), human myelin oligodendrocyte glycoprotein (MOG 38-60, MOG 63-87, MOG 76-100, MOG 89-113, MOG 112-132 and MOG 162-188) and cryptic peptides from MBP (MBP 41-69, MBP 61-79, MBP 121-139 and MBP 131-149) and PLP (PLP 73-104, PLP 145-186, PLP 218-248 and PLP 241-272) that are not normally derived from antigen processing but may be made by extracellular proteolytic activity (57). Whole MBP was isolated from frozen guinea pig spinal cords (Harlan Bioproducts, Indianapolis, Ind.). […] The stained cells were analyzed on a FACScan (BD Biosciences, San Jose, Calif.) using the CellQuest software. […] Background fluorescence was subtracted for each population. […]

hepatoma cells = conditions: cited from earlier work
T cell = conditions: cited from earlier work
EAE = conditions: mouse, in vivo; cited from earlier work

Row | SMILES | Mgat5 N-glycans / β1,6GlcNAc-branched N-glycans expression (L-PHA staining) (Jurkat T-cells [1]) | poly-N-acetyllactosamine expression (LEA staining) (Jurkat T-cells [2]) | intracellular UDP-GlcNAc levels (Jurkat T-cells [3]) | Mgat5 N-glycan / β1,6GlcNAc-branched N-glycans expression in re-stimulated splenocytes [4] | poly-N-acetyllactosamine expression in re-stimulated splenocytes [4] | IL-6 secretion [5] | INFγ production [5] | incidence of EAE following adoptive transfer of T-cells [6] | severity of EAE following adoptive transfer of T-cells [6] | dead cells (Trypan blue exclusion) (CD3+ T cells) [%] | dead cells (Trypan blue exclusion) (CD3+ T cells; listed as N-Acetyl-D-glucosamine) [%] | reversal of SW induced downregulation of Mgat5 glycans (Jurkat T-cells [1]; Jurkat T cells with swainsonine) | synergy with anti-CD3 in up-regulating Mgat5 glycan levels (Jurkat T-cells [1]; Jurkat T cells, anti-CD3) | reversal of attenuated Mgat5 N-glycan expression in MS patients (human PBMCs; MS patient T cells) | Mgat5 modified glycan expression (human PBMCs; human PBMCs) | Mgat5 mRNA expression (hepatoma cells) | INFγ production (T cell) | T cell activation (T cell) | TH1 differentiation (T cell) | EAE (EAE)
1 | CC(=O)N[C@H]1C(O)O[C@H](CO)[C@@H](O)[C@@H]1O (stereo partly drawn) [GlcNAc, N-acetyl-D-glucosamine] | dose dependently increased | dose dependently increased | dramatically raised | doubled; also recorded: increased | doubled; also recorded: increased | promoted | inhibited | dramatically reduced | dramatically reduced | < 5 | < 3 |  |  |  |  |  |  |  |  | 
2 | C=C1/C(=C\C=C2/CCC[C@]3(C)[C@@H]([C@H](C)CCCC(C)(C)O)CC[C@@H]23)C[C@@H](O)C[C@@H]1O [Vitamin D3, 1α,25-Dihydroxyvitamin D3] | enhanced; also recorded: increases |  |  |  |  |  |  |  |  |  |  | rescued; also recorded: reversed | synergized | reversed | enhanced | up-regulates | inhibits | inhibits | inhibits | inhibits

From patent publication US9775859B2, “Methods and compositions for preventing and treating a disease related to glycan dysregulation” (Sinai Health System, priority 2005, dated 2017)
